Test results reported in PMC10503797, “Allosteric modulator potentiates β2AR agonist–promoted bronchoprotection in asthma models” (The Journal of Clinical Investigation, 2023).
Values joined by “and” are separate entries in the source; they are usually repeats but may differ in a detail not shown here. Identical values can stand only once. Like-named read-outs stand apart in the source and are kept apart here.

Tests used:
[1] = molecular target: guinea pig β2AR (Cavia porcellus, UniProt Q8K4Z4); assay: 125I-CYP radioligand competition binding, guinea pig β2AR; settings: Cmpd-6 [25 uM]
[2] = test system: guinea pig lung slices; assay: Methacholine-induced airway constriction in guinea pig lung slices; type: cell-based; settings: for EC50: read-out: MCh EC50
Protocol: All curve fits were generated using the software program GraphPad Prism. Data are represented as mean ± SEM obtained from 6 guinea pigs.
(§1) Precision-cut lung slices were prepared as described previously ([61], [62]). A 3% solution of low melting-point agarose (Gerbu Biotechnik GmbH) in ultrapure water was prepared by heating it a microwave until fully dissolved. […] After filling, the lungs were covered with ice for 30 minutes to solidify the agarose for slicing. […] Lung slices were cut at a thickness of 500 μm and washed several times with slicing buffer to remove debris and washout the isoproterenol. Slices were incubated overnight in a 60 mm dish in sterile incubation buffer: MEM composed of lung slice buffer supplemented with 0.5 mM sodium pyruvate, 1 mM glutamine (Gibco), MEM-amino acids mixture (1:50), MEM-vitamins mixture (1:100; Gibco), and penicillin-streptomycin (1:100; Gibco), pH = 7.2, at 37°C in a CO2- and humidity-controlled atmosphere.
(§2) After washing the slices in medium, individual guinea pig lung slices were mechanically maintained with a Teflon ring with an inner diameter of 7 mm and covered with 1 mL of incubation buffer. […] Image acquisition software (NIS-Elements, Nikon) was used to quantify airway luminal area. Images of the airways were acquired every 2 seconds during the whole course of the experiment, starting 2 minutes before the addition of any agent to allow for baseline measurements of the airway caliber. For each methacholine or ovalbumin concentration, the maximal airway constriction was expressed as percentage of the initial (baseline) airway luminal area and plotted against that concentration.

[3] = test system: human lung slices; assay: Methacholine-induced airway constriction in human lung slices; type: cell-based; set-up: key to MCh-induced airway constriction response (Figure 7): % of initial airway luminal area; settings: for MCh-induced airway constriction response (Figure 7): 1 µM Fenoterol + 25 µM Cmpd-6, donor 1-4
Text: All curve fits were generated using the software program GraphPad Prism. Data are represented as mean ± SEM of 4 human donors (see Table 3 for statistical analyses).
Precision-cut human lung slices were purchased from AnaBios and stored in a liquid nitrogen tank. Lung tissue was obtained postmortem and consent for research was obtained by AnaBios for all donors. Characteristics of the donors of the lung tissue are shown in Supplemental Table 2. Slices were rapidly thawed following instructions from AnaBios.
After washing, individual human lung slices were mechanically maintained with a Teflon ring with an inner diameter of 7 mm and covered with 1 mL of incubation buffer. […] Image acquisition software (NIS-Elements, Nikon) was used to quantify airway luminal area. […] Airway constriction in response to each methacholine concentration was expressed as percentage of the initial airway luminal area.

[4] = test system: lung slices obtained from ovalbumin-sensitized guinea pigs; assay: Ovalbumin-induced airway constriction in lung slices from ovalbumin-sensitized guinea pigs; type: cell-based, guinea pig; set-up: key to OVA-induced airway constriction response (Figure 6): max constriction as % of initial (baseline) airway luminal area; settings: 0.1 µM Fenoterol + 25 µM Cmpd-6, Exp1-5
Text: All curve fits were generated using the software program GraphPad Prism. Data are represented as mean ± SEM of 4–5 guinea pigs (see Table 2 for statistical analyses).
Outbred, male, specified pathogen-free Dunkin Hartley guinea pigs (Charles River Laboratory) weighing 200 to 400 g were used. The animals were housed in pairs under a 12-hour light/dark cycle in a temperature- and humidity-controlled room with food and tap water ad libitum. For studies in the guinea pig model of allergic asthma, animals were actively IgE-sensitized to ovalbumin by injecting a suspension containing 100 μg/mL ovalbumin and 100 mg/mL Al(OH)3 in saline. Each animal was injected with 1.0 mL of suspension: 0.5 mL was injected i.p. and 0.5 mL was divided over 7 s.c. sites close to lymph nodes in the neck, paws, and lumbar regions ([24]). Animals were euthanized at least 4 weeks after sensitization.
as §1, §2

guinea pig β2AR, sequence (Q8K4Z4 whole entry): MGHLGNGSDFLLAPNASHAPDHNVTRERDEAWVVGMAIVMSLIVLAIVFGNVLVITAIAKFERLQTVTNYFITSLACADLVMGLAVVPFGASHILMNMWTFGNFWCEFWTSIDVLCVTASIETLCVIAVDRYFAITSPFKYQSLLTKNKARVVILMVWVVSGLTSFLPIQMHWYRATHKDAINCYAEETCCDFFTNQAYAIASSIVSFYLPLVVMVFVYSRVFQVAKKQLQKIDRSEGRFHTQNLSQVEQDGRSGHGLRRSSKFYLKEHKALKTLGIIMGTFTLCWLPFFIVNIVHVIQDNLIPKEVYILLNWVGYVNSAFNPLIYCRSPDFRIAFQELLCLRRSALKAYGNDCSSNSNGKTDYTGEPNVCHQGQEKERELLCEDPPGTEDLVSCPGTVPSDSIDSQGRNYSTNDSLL

SMILES: COc1ccc(Sc2ccc(S(=O)(=O)N(C)C(C)C)cc2C(=O)N[C@H](CC(N)=O)Cc2ccc(C(C)(C)C)cc2)cc1 [Cmpd-6]
- 125I-CYP binding, Salm competition curve (Figure 4F) ([1]; Log [Salm] (M) -6.30103): 31.3057 and 32.3004 and 47.2072 and 32.0545
- 125I-CYP binding, Salm competition curve (Figure 4F) ([1]; Log [Salm] (M) -6.90309): 67.1995 and 66.2422 and 79.0931 and 66.807
- 125I-CYP binding, Salm competition curve (Figure 4F) ([1]; Log [Salm] (M) -7.50515): 88.5873 and 88.904 and 95.0429 and 88.3948
- 125I-CYP binding, Salm competition curve (Figure 4F) ([1]; Log [Salm] (M) -8.10721): 97.9774 and 97.2972 and 97.374 and 97.0377
- 125I-CYP binding, Salm competition curve (Figure 4F) ([1]; Log [Salm] (M) -8.70927): 99.3713 and 100.399 and 100.671 and 100.779
- 125I-CYP binding, Salm competition curve (Figure 4F) ([1]; Log [Salm] (M) -9.31133): 100.672 and 102.486 and 99.6753 and 100.402
- 125I-CYP binding, Salm competition curve (Figure 4F) ([1]; Log [Salm] (M) -9.91339): 96.4457 and 99.6997 and 100.705 and 99.5228
- 125I-CYP binding, Salm competition curve (Figure 4F) ([1]; Log [Salm] (M) -11 (DMSO)): 100.872 and 95.2897 and 98.0192 and 98.0519
- MCh Emax ([2]; 1 μM Fenoterol + 25 μM Cmpd-6): 112.3 ± 9.5%
- EC50 ([2]; 1 μM Fenoterol + 25 μM Cmpd-6): 590 ± 90 nM
- MCh Emax ([2]; 10 μM Fenoterol + 25 μM Cmpd-6): 100.9 ± 3.2%
- EC50 ([2]; 10 μM Fenoterol + 25 μM Cmpd-6): 980 ± 120 nM
- Augmentation of airway smooth muscle responsiveness to fenoterol ([2]; 25 μM Cmpd-6): 10 fold
- MCh Emax ([2]; 25 μM Cmpd-6 alone): 100.0 ± 2.0%
- EC50 ([2]; 25 μM Cmpd-6 alone): 280 ± 50 nM
- MCh Emax ([3]; 1 μM Fenoterol + 25 μM Cmpd-6): 26.5 ± 4.4^A %
- MCh pD2 ([3]; 1 μM Fenoterol + 25 μM Cmpd-6): 5.52 ± 0.24^B –log M
- MCh-induced airway constriction response (Figure 7) ([3]; -Log [MCh] 3.5): 81.9 and 70.9 and 77.9 and 77.7
- MCh-induced airway constriction response (Figure 7) ([3]; -Log [MCh] 4): 85.4 and 70.2 and 85.0 and 81
- MCh-induced airway constriction response (Figure 7) ([3]; -Log [MCh] 4.5): 87.4 and 88.5 and 81.1 and 82.0
- MCh-induced airway constriction response (Figure 7) ([3]; -Log [MCh] 5): 88.4 and 90.1 and 84.2 and 85.0
- MCh-induced airway constriction response (Figure 7) ([3]; -Log [MCh] 5.5): 89.6 and 91.5 and 87.5 and 90.7
- MCh-induced airway constriction response (Figure 7) ([3]; -Log [MCh] 6): 90.7 and 94.3 and 90.0 and 93.1
- MCh-induced airway constriction response (Figure 7) ([3]; -Log [MCh] 6.5): 93.1 and 102.4 and 95.5 and 94.0
- MCh-induced airway constriction response (Figure 7) ([3]; -Log [MCh] 7): 93.8 and 102.2 and 98.0 and 97.4
- MCh-induced airway constriction response (Figure 7) ([3]; -Log [MCh] 7.5): 95.1 and 104.8 and 98.8 and 98.9
- MCh-induced airway constriction response (Figure 7) ([3]; -Log [MCh] 8): 99.2 and 103.1 and 100.8 and 101.6
- MCh-induced airway constriction response (Figure 7) ([3]; -Log [MCh] 8.5): 96.5 and 109.1 and 101.7 and 103.0
- MCh-induced airway constriction response (Figure 7) ([3]; -Log [MCh] 9): 95.6 and 107.7 and 98.0 and 98.3
- Enhancement of the β2-agonist responsiveness ([3]; 25 μM Cmpd-6 + 1 μM fenoterol vs 10 μM fenoterol): 10 fold
- OVA-induced airway constriction response (Figure 6) ([4]; [OVA] 0.001 ng/ml): 101.6 and 100.0 and 98.0 and 99.2 and 107.5
- OVA-induced airway constriction response (Figure 6) ([4]; [OVA] 0.01 ng/ml): 101.3 and 100.0 and 95.9 and 96.7 and 107.5
- OVA-induced airway constriction response (Figure 6) ([4]; [OVA] 0.1 ng/ml): 101.6 and 100.0 and 97.5 and 97.8 and 107.5
- OVA-induced airway constriction response (Figure 6) ([4]; [OVA] 1 ng/ml): 101.6 and 99.9 and 95.4 and 99.0 and 107.5
- OVA-induced airway constriction response (Figure 6) ([4]; [OVA] 10 ng/ml): 101.3 and 109.6 and 95.4 and 102.0 and 106.4
- OVA-induced airway constriction response (Figure 6) ([4]; [OVA] 100 ng/ml): 102.3 and 105.5 and 95.6 and 99.3 and 107.0
- OVA-induced airway constriction response (Figure 6) ([4]; [OVA] 1000 ng/ml): 102.2 and 108.2 and 105.1 and 101.8
- OVA-induced airway constriction response (Figure 6) ([4]; [OVA] 10000 ng/ml): 101.8 and 96.8 and 105.1 and 98.0 and 79.6
- OVA-induced airway constriction response (Figure 6) ([4]; [OVA] 100000 ng/ml): 101.6 and 81.6 and 100.1 and 89.5 and 64.4
- OVA-induced airway constriction response (Figure 6) ([4]; [OVA] 1000000 ng/ml): 101.0 and 77.3 and 94.7 and 90.3 and 74.1
